From ChEMBL document CHEMBL3885861, “Open TG-GATES”

Species on record: Rattus norvegicus
Test: Open TG-GATES - Regimen: Single
Type: toxicity, organism-based, Sprague-Dawley
Set-up: regimen Single, gender Male, age 6 weeks
Conditions: in vivo, iv, route intravenous injection; for APTT / Bas / Eos / Fbg / Hb / Ht / Lym / MCH / MCHC / MCV / Mono / Neu / Plat / RBC / Ret / WBC / PT: tissue Blood; for KIDNEY_L / KIDNEY_R / KIDNEY_TOTAL: tissue Kidney; for LIVER: tissue Liver; for ALP / ALT / AST / CRE / Ca / DBIL / GLC / IP / K / Na / PL / RALB / TBIL / TC / TG / TP / gamma-GTP / BUN / LDH: tissue Plasma
[1] = 1 mg/kg, 9 h, dose level Middle
[2] = 1 mg/kg, 24 h, dose level Middle

## CISPLATIN
[1]
  TERMINAL_BW: 214.2 g
  APTT: 23.6 s
  Bas: 0%
  Eos: 0.4%
  Fbg: 267.8 mg/dL
  Hb: 12.7 g/dL
  Ht: 39.1%
  Lym: 81.8%
  MCH: 20.6 pg
  MCHC: 32.4%
  MCV: 63.7 fL
  Mono: 2.2%
  Neu: 15%
  Plat: 132.5 x10_4/uL
  RBC: 613.6 x10_4/ul
  Ret: 6.7%
  WBC: 93.8 x10_2/uL
  KIDNEY_L: 1 g
  KIDNEY_R: 1 g
  KIDNEY_TOTAL: 2 g
  LIVER: 9 g
  ALP: 1312 IU/L
  ALT: 39.2 IU/L
  AST: 73 IU/L
  CRE: 0.1 mg/dL
  Ca: 11 mg/dL
  DBIL: 0 mg/dL
  GLC: 179.2 mg/dL
  IP: 9.9 mg/dL
  K: 4.2 meq/L
  Na: 139.6 meq/L
  PL: 120.6 mg/dL
  RALB: 2.9 g/dL
  TBIL: 0.028 mg/dL
  TC: 67 mg/dL
  TG: 51.8 mg/dL
  TP: 5.3 g/dL
  gamma-GTP: 1.4 IU/L
[2]
  TERMINAL_BW: 213.8 g
  Bas: 0%
  Eos: 0.8%
  Fbg: 329 mg/dL
  MCH: 21 pg
  MCHC: 32.9%
  MCV: 63.9 fL
  Mono: 3%
  Neu: 16%
  PT: 16 s
  Plat: 128.4 x10_4/uL
  RBC: 631.8 x10_4/ul
  Ret: 5.2%
  WBC: 100.8 x10_2/uL
  KIDNEY_L: 1 g
  KIDNEY_R: 1 g
  KIDNEY_TOTAL: 2.1 g
  ALT: 46 IU/L
  BUN: 15.4 mg/dL
  CRE: 0.2 mg/dL
  DBIL: 0 mg/dL
  GLC: 183.2 mg/dL
  IP: 7.7 mg/dL
  K: 4.4 meq/L
  LDH: 163.4 IU/L
  PL: 143.6 mg/dL
  RALB: 3.1 g/dL
  TBIL: 0.014 mg/dL
  TC: 78.6 mg/dL
  TG: 85.8 mg/dL
  TP: 5.7 g/dL
  gamma-GTP: 1.6 IU/L
3 mg/kg, 3 h, dose level High
  TERMINAL_BW: 219.6 g
  APTT: 22.3 s
  Bas: 0%
  Eos: 1%
  Fbg: 271 mg/dL
  Hb: 12.7 g/dL
  Ht: 39%
  Lym: 78.4%
  MCV: 65.3 fL
  Mono: 2.8%
  PT: 15.9 s
  Plat: 130.5 x10_4/uL
  RBC: 596.8 x10_4/ul
  Ret: 6.7%
  WBC: 97.6 x10_2/uL
  KIDNEY_L: 1 g
  KIDNEY_R: 1 g
  KIDNEY_TOTAL: 1.9 g
  LIVER: 9.7 g
  ALP: 1622.8 IU/L
  ALT: 43.4 IU/L
  AST: 80.6 IU/L
  CRE: 0.2 mg/dL
  DBIL: 0 mg/dL
  GLC: 177.6 mg/dL
  IP: 9 mg/dL
  K: 4.2 meq/L
  LDH: 166.2 IU/L
  Na: 139.4 meq/L
  PL: 115 mg/dL
  RALB: 2.8 g/dL
  TBIL: 0.026 mg/dL
  TC: 64.8 mg/dL
  TG: 63.6 mg/dL
  TP: 5.2 g/dL
  gamma-GTP: 1.6 IU/L
3 mg/kg, 6 h, dose level High
  TERMINAL_BW: 210.6 g
  APTT: 22 s
  Bas: 0%
  Eos: 0.8%
  Fbg: 280.6 mg/dL
  Hb: 12.9 g/dL
  Ht: 39.8%
  MCV: 64 fL
  Mono: 2.8%
  PT: 15.3 s
  Plat: 123.5 x10_4/uL
  RBC: 623.2 x10_4/ul
  Ret: 6.2%
  WBC: 89 x10_2/uL
  KIDNEY_L: 0.9 g
  KIDNEY_R: 0.9 g
  KIDNEY_TOTAL: 1.9 g
  LIVER: 9.1 g
  ALP: 1307.8 IU/L
  ALT: 42.6 IU/L
  AST: 81 IU/L
  CRE: 0.2 mg/dL
  DBIL: 0 mg/dL
  GLC: 177.2 mg/dL
  IP: 9.5 mg/dL
  K: 4.7 meq/L
  Na: 139 meq/L
  PL: 127.8 mg/dL
  RALB: 2.9 g/dL
  TBIL: 0 mg/dL
  TC: 75 mg/dL
  TG: 79.2 mg/dL
  TP: 5.3 g/dL
  gamma-GTP: 1.8 IU/L
3 mg/kg, 9 h, dose level High
  TERMINAL_BW: 213.7 g
  APTT: 22.3 s
  Bas: 0%
  Eos: 0.6%
  Fbg: 287.4 mg/dL
  Ht: 38.5%
  Lym: 79.8%
  MCHC: 32.7%
  Mono: 1.8%
  PT: 15.4 s
  Plat: 137.7 x10_4/uL
  RBC: 615.8 x10_4/ul
  Ret: 5.4%
  WBC: 60.5 x10_2/uL
  KIDNEY_L: 1 g
  KIDNEY_R: 1 g
  KIDNEY_TOTAL: 1.9 g
  LIVER: 8.6 g
  ALP: 1222.8 IU/L
  ALT: 37.8 IU/L
  AST: 73 IU/L
  BUN: 12 mg/dL
  CRE: 0.1 mg/dL
  Ca: 11 mg/dL
  DBIL: 0 mg/dL
  GLC: 178.6 mg/dL
  IP: 9.8 mg/dL
  K: 4.4 meq/L
  LDH: 133.4 IU/L
  Na: 140.2 meq/L
  PL: 124 mg/dL
  RALB: 3 g/dL
  TBIL: 0.024 mg/dL
  TC: 70.2 mg/dL
  TG: 57 mg/dL
  TP: 5.4 g/dL
  gamma-GTP: 1.8 IU/L
3 mg/kg, 24 h, dose level High
  TERMINAL_BW: 220 g
  APTT: 22.6 s
  Bas: 0%
  Eos: 0.6%
  Fbg: 297.2 mg/dL
  Ht: 40.2%
  Lym: 87%
  MCH: 21 pg
  MCHC: 33%
  MCV: 63.8 fL
  Mono: 2.8%
  Neu: 9.4%
  Plat: 134.6 x10_4/uL
  RBC: 629.2 x10_4/ul
  Ret: 3.9%
  WBC: 73 x10_2/uL
  KIDNEY_L: 1 g
  KIDNEY_R: 1 g
  KIDNEY_TOTAL: 2 g
  LIVER: 9.6 g
  ALP: 1429.2 IU/L
  ALT: 39 IU/L
  AST: 72.4 IU/L
  BUN: 16.2 mg/dL
  CRE: 0.2 mg/dL
  DBIL: 0 mg/dL
  GLC: 181 mg/dL
  IP: 8.3 mg/dL
  K: 4.3 meq/L
  Na: 140 meq/L
  PL: 147.2 mg/dL
  RALB: 3.1 g/dL
  TBIL: 0.024 mg/dL
  TC: 89.2 mg/dL
  TG: 51.8 mg/dL
  TP: 5.5 g/dL
  gamma-GTP: 1.8 IU/L
